Patent US8822430B2 (Gilead Sciences, Inc., priority 2009, dated 2014)

Test system: HCV 1b RLuc cells (dicistronic genotype 1b Con1 replicon)
Assay: Renilla luciferase (RLuc)-based HCV replicon reporter assay
Assay type: cell-based, HCV genotype 1b
Details: Hepatitis C virus, 72 h, HCV 1b RLuc replicon, 72 hours; read-out: Activity (antiviral potency [EC50])
Procedure: Antiviral potency (EC50) was determined using a Renilla luciferase (RLuc)-based HCV replicon reporter assay. To perform the assay, HCV 1b RLuc cells (harboring a dicistronic genotype 1b Con1 replicon that encodes a RLuc reporter), or HCV 1a RLuc cells (harboring a dicistronic genotype 1a H77 replicon that encodes a RLuc reporter), were dispensed into 384-well plates. Compounds were re-suspended in DMSO at a concentration of 10 mM and serially diluted in DMSO using an automated pipeting instrument. Serially diluted compounds were mixed with cell culture media and added to the seeded cells. DMSO was used as a negative (solvent) control, and the protease inhibitor ITMN-191 was included at a concentration >100×EC50 as a positive control. 72 hours later, cells were lysed and Renilla luciferase activity quantified as recommended by the manufacturer (Promega-Madison, Wis.). Non-linear regression was performed to calculate EC50 values.
Biological data (antiviral potency [EC50] was determined using a Renilla luciferase (RLuc)-based HCV replicon reporter assay—HCV 1b RLuc) for representative compounds of the invention is provided in the following table. These compounds can be prepared using procedures similar to those described above.

Structure (SMILES)	EC50 [nM]
COC(=O)N[C@H](C(=O)N1CCC[C@H]1C(=O)Nc1cccc(-c2ccc(-c3cnc([C@@H]4CCCN4C(=O)[C@@H](NC(=O)OC)C(C)C)[nH]3)cc2)c1)C(C)C	0.118
COC(=O)NC(C(=O)N1CCC[C@H]1c1ncc(-c2ccc3c(c2)COc2c-3ccc3cc(-c4cnc([C@@H]5CCCN5C(=O)C(NC(=O)OC)c5ccccc5)[nH]4)ccc23)[nH]1)c1ccccc1 (stereo partly drawn)	0.0275
COC(=O)N[C@H](C(=O)NC1(c2ncc(-c3ccc(-c4ccc(-c5cnc([C@@H]6CCCN6C(=O)[C@@H](NC(=O)OC)C(C)C)[nH]5)cc4)cc3)[nH]2)CCC1)C(C)C	0.0184
COC(=O)NC(C(=O)N1CCC[C@H]1c1ncc(-c2ccc(C#Cc3ccc(-c4cnc([C@@H]5CCCN5C(=O)[C@@H](NC(=O)OC)C(C)C)[nH]4)cc3)cc2)[nH]1)C(F)(F)F (stereo partly drawn)	> 44.4
COC(=O)N[C@H](C(=O)N1CCC[C@H]1C(=O)Nc1nccc2cc(-c3ccc(-c4cnc([C@@H]5CCCN5C(=O)[C@@H](NC(=O)OC)C(C)C)[nH]4)cc3)ccc12)C(C)C	0.729
COC(=O)N[C@H](C(=O)N1CCC[C@H]1c1ncc(-c2ccc(C#Cc3ccc(-c4cnc([C@@H]5CN(C(C)=O)CCN5C(=O)[C@@H](NC(=O)OC)C(C)C)[nH]4)cc3)cc2)[nH]1)C(C)C	0.204
COC(=O)NC(C(=O)N1CCC[C@H]1c1ncc(-c2ccc(-c3ccc4cc(-c5cnc([C@@H]6CCCN6C(=O)[C@@H](NC(=O)OC)C(C)C)[nH]5)ccc4c3)cc2)[nH]1)c1ccccc1 (stereo partly drawn)	0.0097
COC(=O)N[C@H](C(=O)N1CCC[C@H]1c1ncc(-c2ccc3cc(-c4ccc(-c5ccc6nc([C@@H]7[C@H]8CC[C@H](C8)N7C(=O)[C@@H](NC(=O)OC)C(C)C)[nH]c6c5)cc4)ccc3c2)[nH]1)C(C)C	0.077
COC(=O)N[C@H](C(=O)N1CCC[C@H]1c1ncc(-c2ccc(-c3ccc4cc(-c5cnc([C@@H]6CCCN6C(=O)[C@H](NC(=O)OC)c6ccccc6)[nH]5)ccc4c3)cc2)[nH]1)C(C)C	0.0083
COC(=O)N[C@H](C(=O)N1CCC[C@H]1c1ncc(C#CC#Cc2cnc([C@@H]3CCCN3C(=O)[C@@H](NC(=O)OC)C(C)C)[nH]2)[nH]1)C(C)C	1.33
COC(=O)N[C@H](C(=O)N1CCC[C@H]1c1ncc(-c2ccc3cc(-c4ccc5cc(-c6cnc([C@@H]7CCCN7C(=O)[C@@H](NC(=O)OC)C(C)C)[nH]6)ccc5c4)ccc3c2)[nH]1)C(C)C	0.0239
COC(=O)N[C@H](C(=O)N1CCC[C@H]1c1ncc(-c2ccc(C#Cc3ccc(-c4cnc([C@@H]5CC(F)(F)CN5C(=O)[C@@H](NC(=O)OC)C(C)C)[nH]4)cc3)cc2)[nH]1)C(C)C	0.0091
COC(=O)N[C@H](C(=O)N1CCC[C@H]1c1ncc(-c2ccc3c(c2)CCc2cc(-c4cnc([C@@H]5[C@H]6CC[C@H](C6)N5C(=O)[C@@H](NC(=O)OC)C(C)C)[nH]4)ccc2-3)[nH]1)C(C)C	0.0088
CNC(=O)N1CCN(C(=O)[C@@H](NC(=O)OC)C(C)C)[C@H](c2ncc(-c3ccc(C#Cc4ccc(-c5cnc([C@@H]6CCCN6C(=O)[C@@H](NC(=O)OC)C(C)C)[nH]5)cc4)cc3)[nH]2)C1	1.05
COC(=O)N[C@H](C(=O)N1CCC[C@H]1c1ncc(-c2ccc(/C=C/c3ccc(-c4cnc([C@@H]5CCCN5C(=O)[C@@H](NC(=O)OC)C(C)C)[nH]4)cc3)cc2)[nH]1)C(C)C	0.0264
COC(=O)N[C@H](C(=O)N1CCC[C@H]1c1ncc(-c2ccc(C#Cc3ccc(-c4cnc([C@@H]5CN(C(=O)OC(C)(C)C)CN5C(=O)[C@@H](NC(=O)OC)C(C)C)[nH]4)cc3)cc2)[nH]1)C(C)C	0.318
COC(=O)N[C@H](C(=O)N1CCC[C@H]1c1ncc(-c2ccc3c(c2)Sc2cc(-c4cnc([C@@H]5CCCN5C(=O)[C@@H](NC(=O)OC)C(C)C)[nH]4)ccc2S3)[nH]1)C(C)C	0.349
COC(=O)N[C@H](C(=O)N1CCC[C@H]1c1ncc(-c2ccc(-c3ccc4c(c3)C(F)(F)c3cc(-c5cnc([C@@H]6CC7(CC7)CN6C(=O)[C@@H](NC(=O)OC)C(C)C)[nH]5)ccc3-4)cc2)[nH]1)C(C)C	0.0208
COC(=O)N[C@H](C(=O)N1CCC[C@H]1c1ncc(-c2ccc3cc(-c4ccc5[nH]c([C@@H]6CCN6C(=O)[C@@H](NC(=O)OC)C(C)C)nc5c4)ccc3c2)[nH]1)C(C)C	0.026
COC(=O)N[C@@H](CS(C)(=O)=O)C(=O)N1[C@@H]2CC[C@@H](C2)[C@H]1c1nc2ccc(-c3ccc4c(c3)C(F)(F)c3cc(-c5cnc([C@@H]6CC7(CC7)CN6C(=O)[C@@H](NC(=O)OC)C(C)C)[nH]5)ccc3-4)cc2[nH]1	0.005
COC(=O)N[C@H](C(=O)N1CCC[C@H]1c1ncc(-c2ccc3cc(-c4ccc(-c5cnc([C@@H]6CCCN6C(=O)[C@H](NC(=O)OC)c6cccs6)[nH]5)cc4)ccc3c2)[nH]1)C(C)C	0.0262

Structure (SMILES)	EC50 [nM]
COC(=O)N[C@H](C(=O)N1CCC[C@H]1c1ncc(-c2ccc(-c3ccc(-c4cnc([C@@H]5CCCN5C(=O)[C@@H](NC(=O)OC)C(C)C)[nH]4)cc3)cc2)[nH]1)C(C)C	0.0719
COC(=O)N[C@H](C(=O)N1CC2(CC2)C[C@H]1c1ncc(-c2ccc(-c3ccc(-c4ccc5nc([C@@H]6[C@H]7CC[C@H](C7)N6C(=O)[C@@H](NC(=O)OC)C(C)C)[nH]c5c4)cc3)cc2)[nH]1)C(C)C	0.0058
COC(=O)N[C@H](C(=O)N1CCC[C@H]1c1ncc(-c2ccc(-c3ccc(-c4cnc([C@@H]5CC[C@@H]6CC[C@H](NC(=O)OC(C)(C)C)C(=O)N65)[nH]4)cc3)cc2)[nH]1)C(C)C	0.325
COC(=O)N[C@H](C(=O)N1CCC[C@H]1c1ncc(-c2ccc3cc(-c4ccc(-c5cnc(-c6cccn6S(=O)(=O)c6ccccc6)[nH]5)cc4)ccc3c2)[nH]1)C(C)C	24.1
COC(=O)N[C@@H](CCSC)C(=O)N1CCC[C@H]1c1nc(-c2ccc3c(c2)C(F)(F)c2cc(-c4cnc([C@@H]5CC6(CC6)CN5C(=O)[C@@H](NC(=O)OC)C(C)C)[nH]4)ccc2-3)c[nH]1	0.0204
CN[C@H](C(=O)N1CCC[C@H]1c1nc2ccc(-c3ccc(-c4ccc(-c5ccc6nc([C@@H]7CCCN7C(=O)[C@@H](NC(=O)OC)C(C)C)[nH]c6c5)cc4)cc3)cc2[nH]1)C(C)C	0.0441
COC(=O)N[C@H](C(=O)N1CCC[C@H]1c1ncc(-c2ccc(-c3ccc4cc(-c5cnc([C@@H]6CCCN6C(=O)[C@@H](NC(=O)OC)C6CCOCC6)[nH]5)ccc4c3)cc2)[nH]1)C(C)C	0.0193
COC(=O)N[C@H](C(=O)N1CCC[C@H]1c1ncc(-c2ccc(-c3ccc(-c4cnc([C@@H]5CN(C(=O)c6ccccc6)CN5C(=O)[C@@H](NC(=O)OC)C(C)C)[nH]4)cc3)cc2)[nH]1)C(C)C	0.0136
COC(=O)N[C@@H](CCC(F)(F)F)C(=O)N1CCC[C@H]1c1ncc(-c2ccc(-c3ccc(-c4cnc([C@@H]5CCCN5C(=O)[C@H](CCC(F)(F)F)NC(=O)OC)[nH]4)cc3)cc2)[nH]1	0.0635
COC(=O)N[C@H](C(=O)N1CCC[C@H]1c1ncc(-c2ccc(-c3ccc(-c4cnc([C@@H]5CCCN5C(=O)[C@@H](NC(=O)OC)C(C)(C)S(C)(=O)=O)[nH]4)cc3)cc2)[nH]1)C(C)C	0.161
COC(=O)N[C@@H](CCOCC(F)(F)F)C(=O)N1CCC[C@H]1c1ncc(-c2ccc(-c3ccc(-c4cnc([C@@H]5CCCN5C(=O)[C@H](CCOCC(F)(F)F)NC(=O)OC)[nH]4)cc3)cc2)[nH]1	0.0244
COC(=O)N[C@H](C(=O)N1CCC[C@H]1c1ncc(-c2ccc3c(c2)CN(C)C(=O)c2cc(-c4cnc([C@@H]5CCCN5C(=O)[C@@H](NC(=O)OC)C(C)C)[nH]4)ccc2-3)[nH]1)C(C)C	2.14
COC(=O)N[C@H](C(=O)N1CCC[C@H]1c1ncc(-c2ccc(-c3ccc(-c4ccc(-c5cnc([C@@H]6CCCN6C(=O)[C@@H](NC(=O)OC)C(C)C)[nH]5)cc4)s3)cc2)[nH]1)C(C)C	0.0989
COC(=O)N[C@H](C(=O)N1CCC[C@H]1c1ncc(C23CCC(c4ccc(-c5cnc([C@@H]6CCCN6C(=O)[C@H](NC(=O)OC)C(C)C)[nH]5)cc4)(CC2)CC3)[nH]1)C(C)C	39.7
COC(=O)N[C@@H](C)C(=O)N1CCC[C@H]1c1ncc(-c2ccc3c(c2)sc2cc(-c4cnc([C@@H]5[C@H]6CC[C@H](C6)N5C(=O)[C@H](C)NC(=O)OC)[nH]4)ccc23)[nH]1	0.0185
COC(=O)N[C@H](C(=O)N1CCC[C@H]1c1ncc(-c2ccc(-c3ccc(-c4cnc([C@@H]5CCCN5C(=O)[C@@H](NC(=O)OC)C(C)C)[nH]4)s3)cc2)[nH]1)C(C)C	0.0081
COC(=O)N[C@@H](CC#N)C(=O)N1[C@@H]2CC[C@@H](C2)[C@H]1c1nc2ccc(-c3ccc4c(c3)C(F)(F)c3cc(-c5cnc([C@@H]6CC7(CC7)CN6C(=O)[C@@H](NC(=O)OC)C(C)C)[nH]5)ccc3-4)cc2[nH]1	0.004
COC(=O)NC(C(=O)N1CCC[C@H]1c1ncc(-c2ccc(-c3ccc4cc(-c5cnc([C@@H]6CCCN6C(=O)[C@@H](NC(=O)OC)C(C)C)[nH]5)ccc4c3)cc2)[nH]1)c1ccccc1C (stereo partly drawn)	0.0117
COC(=O)N[C@H](C(=O)N1CC2(C[C@H]1c1ncc(-c3ccc(-c4ccc(-c5cnc([C@@H]6CCCN6C(=O)[C@@H](NC(=O)OC)C6CCOCC6)[nH]5)cc4)cc3)[nH]1)OCCO2)C(C)C	0.546
COC(=O)N[C@H](C(=O)N1CCC[C@H]1c1ncc(-c2ccc3c(c2)COc2c-3ccc3cc(-c4cnc([C@@H]5CCCN5C(=O)[C@@H](NC(=O)OC)C(C)C)[nH]4)ccc23)[nH]1)C(C)C	0.0044

Same assay, conditions: Hepatitis C virus, 72 h, read-out: Activity (antiviral potency [EC50])

Structure (SMILES)	EC50 [nM]
COC(=O)N[C@H](C(=O)N1CCC[C@H]1C(=O)Nc1ccc(NC(=O)c2ccc(NC(=O)[C@@H]3CCCN3C(=O)[C@@H](NC(=O)OC)C(C)C)cc2)cc1)C(C)C	37.8
